This note sets out measurements from patent publication US10906894B2, “Compounds containing benzo[d][1,3]oxathiole, benzo[d][1,3]oxathiole 3-oxide or benzo[d][1,3]oxathiole 3,3-dioxide and methods/uses thereof as agonists of g protein-coupled receptor 119” (PRAMANA PHARMACEUTICALS INC., priority 2016, dated 2021).

Usually EC50 stands for the concentration at which the effect is half-maximal. A higher EC50 goes with weaker potency.

This assay addresses T1, GPR119 (Homo sapiens, UniProt Q8TDV5).
T1 sequence (Q8TDV5 1-335): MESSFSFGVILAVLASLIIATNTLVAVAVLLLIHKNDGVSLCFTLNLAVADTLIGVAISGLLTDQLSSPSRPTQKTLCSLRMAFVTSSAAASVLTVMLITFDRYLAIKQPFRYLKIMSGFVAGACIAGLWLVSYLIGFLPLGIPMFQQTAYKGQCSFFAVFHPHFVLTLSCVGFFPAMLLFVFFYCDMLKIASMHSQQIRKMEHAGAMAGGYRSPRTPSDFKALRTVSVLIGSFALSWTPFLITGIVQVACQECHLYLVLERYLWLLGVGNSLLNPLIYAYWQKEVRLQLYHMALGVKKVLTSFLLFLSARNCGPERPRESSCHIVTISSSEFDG
Description: LANCE Ultra cAMP assay: stimulation of GPR119-mediated cAMP production in CHO cells stably expressing human GPR119 receptor. In kind it is cell-based. The note with it: for Emax: CHO. The method, then:
The potency of GPR119 receptor agonists was assessed by measuring the stimulation of GPR119-mediated cAMP production with LANCE Ultra cAMP assay (Perkin Elmer, TRF0264) in CHO cells stably expressing human GPR119 receptor (Chantest, cat. #A633). CHO-GPR119 cells were cultured in DMEM/F12 medium supplemented with 10% FBS and 1% NEAA at 37° C., 5% CO2, aliquoted and frozen in liquid nitrogen.
For assay, cells were thawed in a water bath at 37° C., washed in Hank's Balanced Salt Solution (HBSS) and resuspended in Stimulation Buffer 1 (SB1) for 30 min: 5 mM HEPES, pH 7.2-7.4, 0.1% BSA in HBSS. […] The ULight-anti-cAMP antibody (Perkin Elmer, TRF0264) was added to the cell suspension making Mix [Cell suspension/4× ULight-anti-cAMP antibodies]. […] The assay plate was centrifuged 200 g, 5 sec.
Serial dilution (100×) of tested compounds were prepared in DMSO in the range of from 30 nM to 1 mM with half-log step in 384-well plates (Greiner, 781280) using Biomek 2000. 10 test concentrations in two repeats were prepared for each CRC. […] The assay plate was incubated 30 minutes at room temperature on a shaker, 250 rpm to allow GPR119 receptor stimulation. The cAMP level was determined according to the standard kit supplier protocol (PerkinElmer, cat. #TRF0264).
(§1) The stock solution of the Eu-cAMP tracer (Perkin Elmer, TRF0264) was diluted 1:100 in cAMP Detection Buffer (Perkin Elmer, TRF0264), making 2× working concentration and added to the assay plate, 10 μL per well. Assay plate was centrifuged 180 g, 1 sec. Then the assay plate was incubated for 60′ at room temperature on shaker, 250 rpm to allow cAMP detection. The TR-FRET signal was measured at Ex-340 nm/Em-615 and Ex-340 nm/Em-665 nm on the reader Tecan M1000. 0% of cAMP stimulation corresponds to the cells with DMSO only, 100% of cAMP stimulation corresponds to the cells with 10 uM Forskolin. The EC50 value defined as the concentration of the drug that gives half-maximal response, were calculated using GraphPad Prizm 5.0 software with forskolin was used as references at each test. Entries 1-17 in Table A-2 show the biological activity of certain representative compounds using the protocol as described above.
For assay, cells were thawed in a water bath at 37° C., washed in Hank's Balanced Salt Solution (HBSS) and resuspended in Stimulation Buffer 1 (SB1) for 30 min: 5 mM HEPES, pH 7.2-7.4, 0.1% BSA in HBSS. […] The ULight-anti-cAMP antibody (Perkin Elmer, TRF0264) was added to the cell suspension, making Mix [Cell suspension/4× ULight-anti-cAMP antibodies]. […] The assay plate was centrifuged 200 g, 5 sec.
as §1, with “1-14” for “1-17”, “B-2” for “A-2”
Background: TR-FRET usually uses a lanthanide donor and a delayed reading to cut background.

Setting [1] is: Table B-2 entries 15-39, modified protocol, 500 cells/well, read-out: % cAMP Max.
Where [2] appears, read: Table B-2 entries 15-39, modified protocol, 500 cells/well.
The mark [3] stands for this setting: Table A-2 entries 18-25, modified protocol, 500 cells/well, read-out: % cAMP Max. relative to forscolin.
The mark [4] stands for this setting: Table A-2 entries 18-25, modified protocol, 500 cells/well.
Where [5] appears, read: Table A-2 entries 1-17, protocol as described, 100% = 10 uM Forskolin, read-out: % cAMP Max. relative to forscolin.
[6] abbreviates: Table A-2 entries 1-17, protocol as described (800 000 cells/mL, 5 uL/well), CHO-GPR119 cells.
Setting [7] is: Table B-2 entries 1-14, protocol as described (800 000 cells/mL, 5 uL/well), CHO-GPR119 cells.
Setting [8] is: reference ligands in modified protocol, 500 cells/well.

Read-outs that look alike come from different tables or passages of the source. Bounds are passed on as bounds.

Take `CCc1cnc(N2CCC(COc3ccc(-c4ccc5c(c4)OC[S@@+]5[O-])cc3F)CC2)nc1` [Example B-45, (S)-6-(4-((1-(5-Ethylpyrimidin-2-yl)piperidin-4-yl)methoxy)-3-fluorophenyl)-2H-benzo[d][1,3]oxathiole 3-oxide]: the Emax under setting [1] was found to be 68%. The compound also gave an EC50 under setting [2] of 2.3 nM.

`CCc1cnc(N2CCC(COc3cnc(-c4ccc5c(c4)OCS5(=O)=O)nc3)CC2)nc1` [Example A-76, 6-(5-((1-(5-Ethylpyrimidin-2-yl)piperidin-4-yl)methoxy)pyrimidin-2-yl)-2H-benzo[d][1,3]oxathiole 3,3-dioxide]: the Emax under setting [3] stood at 87%. Under setting [4], the EC50 was 8.2 nM.

Take `O=S1(=O)COc2cc(-c3ccc(N4CCN(c5ncc(Cl)cn5)CC4)c(F)c3)ccc21` [Example A-65, 6-(4-(5-Chloropyrimidin-2-yl)piperazin-1-yl)-3-fluorophenyl-2H-benzo[d][1,3]oxathiole 3,3-dioxide]: the Emax under setting [5] was 84%. Also, under setting [6], it took 112 nM to reach a half-maximal effect (EC50).

As for `[O-][S+]1COc2cc(-c3ccc(OCC4CCNCC4)c(F)c3)ccc21` (centres unmarked) [Example B-18], the EC50 under setting [7] is > 500 nM.

For `[O-][S+]1COc2cc(-c3ccc(OCC4CCN(c5ncc(Cl)cn5)CC4)c(F)c3)ccc21` (centres unmarked) [Example B-16, 6-(4-((1-(5-Chloropyrimidin-2-yl)piperidin-4-yl)methoxy)-3-fluorophenyl)-2H-benzo[d][1,3]oxathiole 3-oxide], it took 2.3 nM to reach a half-maximal effect under setting [7] (EC50).

As to `[O-][S@+]1COc2cc(-c3ccc(OCC4CCN(c5ncc(Cl)cn5)CC4)c(F)c3)ccc21` [Example B-32, (S)-6-(4-((1-(5-chloropyrimidin-2-yl)piperidin-4-yl)methoxy)-3-fluorophenyl)-2H-benzo[d][1,3]oxathiole 3-oxide], under setting [7], the EC50 was 1.2 nM.

Consider `COc1cnc(N2CCC(COc3ccc(-c4ccc5c(c4)OC[S@+]5[O-])cc3F)CC2)nc1` [Example B-51, (R)-6-(3-Fluoro-4-((1-(5-methoxypyrimidin-2-yl)piperidin-4-yl)methoxy)phenyl)-2H-benzo[d][1,3]oxathiole 3-oxide], for which the Emax under setting [1] was found to be 70%. Further, the EC50 under setting [2] came out at 40.6 nM.

`CCc1cnc(N2CCC(COc3ccc(-c4ccc5c(c4)OC[S+]5[O-])cc3F)CC2)nc1` (centres unmarked) [Example B-19]: under setting [7], the EC50 is 4.8 nM.

On to `C=C[C@@]1(C)CC(=O)[C@]2(O)[C@@]3(C)[C@@H](O)CCC(C)(C)[C@@H]3[C@H](O)[C@H](OC(C)=O)[C@@]2(C)O1` [Forscolin, Forskolin, reference compound], for which, under setting [8], a half-maximal effect (EC50) was put at 28.5 nM and the “maximum cAMP stimulation” value turned out to be 124%.

In the case of `CCc1cnc(N2CC[C@@H](COc3ccc(-c4ccc5c(c4)OC[S@@+]5[O-])cc3F)C2)nc1` [Example B-77], the Emax under setting [1] was 81%. Under setting [2], this compound yielded an EC50 of 32.5 nM.

In the case of `CCc1cnc(N2CC[C@@H](COc3ccc(-c4ccc5c(c4)OCS5)cc3F)C2)nc1` [Example B-69], the EC50 under setting [2] was > 10000 nM.

`COc1cnc(N2CCC(COc3ccc(-c4ccc5c(c4)OC[S+]5[O-])cc3F)CC2)nc1` (centres unmarked) [Example B-24, 6-(3-Fluoro-4-((1-(5-methoxypyrimidin-2-yl)piperidin-4-yl)methoxy)phenyl)-2H-benzo[d][1,3]oxathiole 3-oxide] registered an EC50 under setting [7] of 2.3 nM.

Regarding `CC(C)c1noc(N2CC(COc3ccc(-c4ccc5c(c4)OCS5(=O)=O)cc3F)C2)n1` [A-52, 6-(3-Fluoro-4-((1-(3-isopropyl-1,2,4-oxadiazol-5-yl)azetidin-3-yl)methoxy)phenyl)-2H-benzo[d][1,3]oxathiole 3,3-dioxide], the Emax under setting [5] turned out to be 81%. For the same compound, the EC50 under setting [6] was 24 nM.

Turning to `CC(C)CC(=O)N1CCC(COc2ccc(-c3ccc4c(c3)OC[S+]4[O-])cc2F)CC1` (centres unmarked) [Example B-23, 1-(4-((2-Fluoro-4-(3-oxido-2H-benzo[d][1,3]oxathiol-6-yl)phenoxy)methyl)-piperidin-1-yl)-3-methylbutane-1-one], a half-maximal effect under setting [7] (EC50) was put at 46.2 nM.

As for `CC(C)(C)C(=O)N1CCC(COc2ccc(-c3ccc4c(c3)OCS4(=O)=O)cc2F)CC1` [A-15], the Emax under setting [5] is 80%. The compound also displayed an EC50 under setting [6] of 61.7 nM.

Consider `O=S1(=O)COc2cc(-c3ccc(OCC4CCN(c5ncncn5)CC4)c(F)c3)ccc21` [A-42, 6-(4-((1-(1,3,5-Triazin-2-yl)piperidin-4-yl)methoxy)-3-fluorophenyl)-2H-benzo[d][1,3]oxathiole 3,3-dioxide], for which, under setting [5], the Emax was 75%. Further, the EC50 under setting [6] turned out to be 102 nM.

For `NCC(=O)N1CCC(COc2ccc(-c3ccc4c(c3)OCS4(=O)=O)cc2F)CC1` [A-17], the Emax under setting [5] is 67%. Under setting [6], the EC50 was ≥ 10000 nM.

Regarding `O=S1(=O)COc2ccc(-c3ccc(OCC4CCN(c5ncc(Cl)cn5)CC4)c(F)c3)cc21` [A-40], the Emax under setting [5] is 65%. Also, the concentration giving a half-maximal response (EC50) under setting [6] came out at 369 nM.

With `CCc1ccnc(N2CCC(COc3ccc(-c4ccc5c(c4)OC[S+]5[O-])cc3F)CC2)n1` (centres unmarked) [Example B-25], the EC50 under setting [7] came to 31.8 nM.

For `CC(C)c1cnc(N2CCC(COc3ccc(-c4ccc5c(c4)OC[S@+]5[O-])cc3F)CC2)nc1` [Example B-53, (R)-6-(3-fluoro-4-((1-(5-isopropylpyrimidin-2-yl)piperidin-4-yl)methoxy)phenyl)-2H-benzo[d][1,3]oxathiole 3-oxide], the Emax under setting [1] was 74%. The same compound displayed an EC50 under setting [2] of 41 nM.

With `Fc1cc(-c2ccc3c(c2)OCS3)ccc1OCC1CCN(c2ncc(Cl)cn2)CC1` [Example B-12], the response under setting [7] was half-maximal at 280 nM (EC50).

For the compound `O=S1(=O)COc2cc(-c3ccc(OCc4cnc(C5CCN(c6ncc(Cl)cn6)CC5)s4)c(F)c3)ccc21` [Example A-58, 6-(4-((2-(1-(5-Chloropyrimidin-2-yl)piperidin-4-yl)thiazol-5-yl)methoxy)-3-fluorophenyl)-2H-benzo[d][1,3]oxathiole-3,3-dioxide], the Emax under setting [5] worked out at 73%. The same compound came in with an EC50 under setting [6] of 96 nM.

As for `CC(C)(C)N1CCC(COc2ccc(-c3ccc4c(c3)OCS4(=O)=O)cc2F)CC1` [A-13], under setting [5], the Emax turned out to be 75%. Under setting [6], this compound came in with a concentration for a half-maximal effect (EC50) of 833 nM.

`COc1cnc(N2CCC(COc3ccc(-c4ccc5c(c4)OCS5(=O)=O)cc3F)CC2)nc1` [Example A-67, 6-(3-Fluoro-4-(1-(5-methoxypyrimidin-2-yl)piperidin-4-yl)methoxy)phenyl-2H-benzo[d][1,3]oxathiole 3,3-dioxide]: the Emax under setting [3] worked out at 72%. This compound also gave an EC50 under setting [4] of 21.4 nM.

Regarding `CCc1cnc(N2CC[C@H](COc3ccc(-c4ccc5c(c4)OC[S@+]5[O-])cc3F)C2)nc1` [Example B-76], the Emax under setting [1] stood at 80%. In addition, the EC50 under setting [2] was found to be 20.5 nM.
